Measurements: patent US20200071326A1, “TAM KINASE INHIBITORS” (Syros Pharmaceuticals, Inc., priority 2017, published 2020)
Counter-ions that a name gives are not always drawn.

What was measured:
MERTK = biological target: T1, MERTK (Homo sapiens, UniProt Q12866); test: IMAP fluorescence polarization kinase assay, MERTK; type: biochemical; conditions: ATP 2.69 μM, enzyme 1.5 nM, 240 minutes, read-out: MERTK inhibitory constant (Ki)
T1 sequence (Q12866 21-999): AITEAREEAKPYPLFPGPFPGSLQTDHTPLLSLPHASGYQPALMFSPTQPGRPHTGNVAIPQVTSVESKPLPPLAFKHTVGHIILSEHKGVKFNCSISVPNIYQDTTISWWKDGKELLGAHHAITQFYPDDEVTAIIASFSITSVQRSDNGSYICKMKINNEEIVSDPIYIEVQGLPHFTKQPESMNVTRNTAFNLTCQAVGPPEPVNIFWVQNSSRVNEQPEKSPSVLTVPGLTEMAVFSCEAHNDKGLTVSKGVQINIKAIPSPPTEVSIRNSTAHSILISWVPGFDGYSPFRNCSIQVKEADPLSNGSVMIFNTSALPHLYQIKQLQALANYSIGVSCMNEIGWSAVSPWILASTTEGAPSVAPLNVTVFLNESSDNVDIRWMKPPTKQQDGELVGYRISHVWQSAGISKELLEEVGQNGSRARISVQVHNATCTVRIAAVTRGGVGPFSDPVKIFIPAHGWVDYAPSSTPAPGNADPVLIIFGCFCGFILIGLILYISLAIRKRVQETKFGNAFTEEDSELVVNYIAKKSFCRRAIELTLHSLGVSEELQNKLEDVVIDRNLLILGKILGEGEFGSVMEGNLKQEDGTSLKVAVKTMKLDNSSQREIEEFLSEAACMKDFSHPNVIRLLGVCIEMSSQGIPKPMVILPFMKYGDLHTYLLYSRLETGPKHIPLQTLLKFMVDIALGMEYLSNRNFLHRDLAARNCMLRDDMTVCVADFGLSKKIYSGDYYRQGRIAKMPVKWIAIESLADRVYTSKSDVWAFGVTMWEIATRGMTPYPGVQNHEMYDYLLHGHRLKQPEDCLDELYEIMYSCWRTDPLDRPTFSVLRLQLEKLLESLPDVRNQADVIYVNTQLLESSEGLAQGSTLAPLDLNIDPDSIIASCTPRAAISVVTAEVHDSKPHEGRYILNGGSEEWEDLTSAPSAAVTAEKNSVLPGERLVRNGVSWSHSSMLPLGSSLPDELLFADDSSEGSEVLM
Experimental: (§1) Activities of compounds against each of TYRO3, AXL, and MERTK as well as against FLT3, were determined using an immobilized metal ion affinity-based fluorescence polarization (“IMAP”) assay. A fluorescently-labeled substrate peptide was phosphorylated in the kinase reaction, after which a binding solution containing large trivalent metal-based nanoparticles was added and the phosphorylated substrate binds to these beads. This reduces the rotational speed of the substrate which is then detected using fluorescence polarization as a read-out.
(§2) The substrates used for each enzyme are as follows: AXL: 5F1-KKKKEEIYFFFG-NH2(SEQ ID NO:1); FLT3: 5F1-KKKKEEIYFFF-NH2 (SEQ ID NO:2); MERTK: 5F1-EFPIYDFLPAKKK-NH2 (SEQ ID NO:3); and TYRO3: 5F1-EFPIYDFLPAKKK-NH2 (SEQ ID NO:4).
(§3) This assay was performed in a 384-well, polystyrene microplate in a final volume of 8 μl. Substrate (final concentration=400 nM), ATP (final concentrations=24.7μM for AXL; 2.74 μM for FLT3; 2.69 μM for MERTK; and 54.0 μM for TYRO3), compounds and enzyme (final concentrations=2.5 nM for AXL, FLT3 and TYRO3; 1.5 nM for MERTK) were pipetted in this order into the appropriate reaction buffer (AXL: 50 mM HEPES, pH 8.0, 1 mM DTT, 10 mM MgCl2, 0.01% BRU35, 0.01% Triton X-100; FLT3: 50 mM HEPES, pH 8.0, 1 mM DTT, 10 mM MgCl2, 0.01% Triton X-100, 0.01% NP40; MERTK/TYRO3: 50 mM HEPES, pH 8.0, 1 mM DTT, 10 mM MgCl2, 0.01% Triton X-100) and incubated at room temperature for varying times (AXL, FLT3 and MERTK: 240 minutes; TYRO3: 60 minutes). IMAP binding solution was then dispensed, the plate incubated for 60 minutes at room temperature and the fluorescence polarization measured. Data were analyzed using XLfit.

TYRO3 = biological target: T2, TYRO3 (Homo sapiens, UniProt Q06418); test: IMAP fluorescence polarization kinase assay, TYRO3; type: biochemical; conditions: ATP 54.0 μM, enzyme 2.5 nM, 60 minutes, read-out: TYRO3 inhibitory constant (Ki)
T2 sequence (Q06418 41-890): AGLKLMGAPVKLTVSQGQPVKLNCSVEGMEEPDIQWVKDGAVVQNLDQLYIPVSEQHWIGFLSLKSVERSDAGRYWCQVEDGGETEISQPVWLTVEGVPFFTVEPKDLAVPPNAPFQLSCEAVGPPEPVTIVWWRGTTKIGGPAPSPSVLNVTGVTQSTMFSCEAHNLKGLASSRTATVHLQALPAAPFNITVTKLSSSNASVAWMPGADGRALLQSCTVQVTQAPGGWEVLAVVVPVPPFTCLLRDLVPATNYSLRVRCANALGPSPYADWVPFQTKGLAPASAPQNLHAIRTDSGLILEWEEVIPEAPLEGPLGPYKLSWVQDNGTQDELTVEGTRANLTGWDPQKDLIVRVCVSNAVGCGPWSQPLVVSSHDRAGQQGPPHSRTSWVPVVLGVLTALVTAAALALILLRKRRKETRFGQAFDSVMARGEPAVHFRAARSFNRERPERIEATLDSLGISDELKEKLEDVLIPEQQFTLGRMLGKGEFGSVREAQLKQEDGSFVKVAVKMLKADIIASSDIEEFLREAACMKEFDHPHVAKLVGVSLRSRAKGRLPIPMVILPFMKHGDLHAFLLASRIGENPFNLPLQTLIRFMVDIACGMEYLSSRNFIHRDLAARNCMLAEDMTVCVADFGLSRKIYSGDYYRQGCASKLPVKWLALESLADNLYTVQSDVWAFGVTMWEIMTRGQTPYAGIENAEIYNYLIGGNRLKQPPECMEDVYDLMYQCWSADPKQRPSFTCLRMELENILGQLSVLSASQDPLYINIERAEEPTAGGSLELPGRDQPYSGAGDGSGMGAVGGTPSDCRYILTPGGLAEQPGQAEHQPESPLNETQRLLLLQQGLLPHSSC
Experimental: as §1, §2, §3

Ki (MERTK) | Ki (TYRO3) | SMILES
0.1 to 1 µM | 0.1 to 1 µM | C#Cc1cc2c(N[C@H]3CC[C@H](N)CC3)c(C(=O)Nc3ccc(F)cc3)cnc2[nH]1 [Compound 128, [4-1(4-aminocyclohexyl)amino]-2-ethynyl-N-(4-fluorophenyl)-1H-pyrrolo[2,3-b]pyridine-5-carboxamide]
< 0.1 µM | < 0.1 µM | CC(C)c1cc2c(N[C@H]3CC[C@H](N)CC3)c(C(=O)NCc3ccc(-n4ccnc4)cc3)cnc2[nH]1 [Compound 129]
< 0.1 µM | < 0.1 µM | CCCc1cc2c(N[C@H]3CC[C@H](N)CC3)c(-c3ccc(COC(C)C)cn3)cnc2[nH]1 [Compound 130]
0.1 to 1 µM | < 0.1 µM | CCCc1cc2c(N[C@H]3CC[C@H](N)CC3)c(-c3cc(N)ccn3)cnc2[nH]1 [Compound 131]
< 0.1 µM | < 0.1 µM | CCc1cc2c(N[C@H]3CC[C@H](N)CC3)c(C(=O)NC3CCN(c4ncccn4)CC3)cnc2[nH]1 [Compound 132]
< 0.1 µM | < 0.1 µM | CCCCCc1cc2c(N[C@H]3CC[C@H](N)CC3)c(C(=O)NCc3ccc(-n4ccnc4)cc3)cnc2[nH]1 [Compound 133]
< 0.1 µM | < 0.1 µM | CCC(C)c1cc2c(N[C@H]3CC[C@H](N)CC3)c(C(=O)Nc3ccc(F)cc3)cnc2[nH]1 (some centres unmarked) [Compound 134]
< 0.1 µM | < 0.1 µM | N[C@H]1CC[C@H](Nc2c(C(=O)Nc3ccc(F)cc3)cnc3[nH]c(C(F)(F)F)cc23)CC1 [Compound 135, 4-(((1r,4r)-4-aminocyclohexyl)amino)-N-(4-fluorophenyl)-2-(trifluoromethyl)-1H-pyrrolo[2,3-b]pyridine-5-carboxamide hydrochloride]
< 0.1 µM | < 0.1 µM | CCc1cc2c(N[C@H]3CC[C@H](N)CC3)c(C(=O)Nc3ccc(F)cc3)cnc2[nH]1 [Compound 136]
0.1 to 1 µM | 0.1 to 1 µM | CCCC(O)c1cc2c(N[C@H]3CC[C@H](N)CC3)c(Br)cnc2[nH]1 (some centres unmarked) [Compound 137]
< 0.1 µM | < 0.1 µM | N[C@H]1CC[C@H](Nc2c(C(=O)Nc3ccc(F)cc3)cnc3[nH]c(C4CCC4)cc23)CC1 [Compound 138, 4-(((1r,4r)-4-aminocyclohexyl)amino)-2-cyclobutyl-N-(4-fluorophenyl)-1H-pyrrolo[2,3-b]pyridine-5-carboxamide hydrochloride]
< 0.1 µM | < 0.1 µM | CCCc1cc2c(N[C@H]3CC[C@H](N)CC3)c(C(=O)NC)cnc2[nH]1 [Compound 139]
< 0.1 µM | < 0.1 µM | CCCc1cc2c(N[C@H]3CC[C@H](N)CC3)c(C(=O)OC)cnc2[nH]1 [Compound 140]
< 0.1 µM | < 0.1 µM | CCCc1cc2c(N[C@H]3CC[C@H](N)CC3)c(C(=O)NC3CCN(c4ncccn4)CC3)cnc2[nH]1 [Compound 141]
< 0.1 µM | < 0.1 µM | CCCc1cc2c(N[C@H]3CC[C@H](N)CC3)c(Br)cnc2[nH]1 [Compound 142]
< 0.1 µM | < 0.1 µM | CC(O)c1cc2c(N[C@H]3CC[C@H](O)CC3)c(-c3ccc(CN4CCOCC4)cn3)cnc2[nH]1 (some centres unmarked) [Compound 143]

Ki (MERTK) | Ki (TYRO3) | SMILES
< 0.1 µM | < 0.1 µM | CCc1cc2c(N[C@H]3CC[C@H](O)CC3)c(-c3ccc(CN4CCOCC4)cn3)cnc2[nH]1 [Compound 144]
0.1 to 1 µM | 0.1 to 1 µM | COC(C)c1cc2c(N[C@H]3CC[C@H](N)CC3)c(C(=O)Nc3ccc(F)cc3)cnc2[nH]1 (some centres unmarked) [Compound 145]
0.1 to 1 µM | < 0.1 µM | CCC(OC)c1cc2c(N[C@H]3CC[C@H](N)CC3)c(C(=O)Nc3ccc(F)cc3)cnc2[nH]1 (some centres unmarked) [Compound 146]
0.1 to 1 µM | < 0.1 µM | CCC(CC)c1cc2c(N[C@H]3CC[C@H](N)CC3)c(C(=O)Nc3ccc(F)cc3)cnc2[nH]1 [Compound 147]
0.1 to 1 µM | 0.1 to 1 µM | CC(O)c1cc2c(N[C@H]3CC[C@H](N)CC3)c(C(=O)Nc3ccc(F)cc3)cnc2[nH]1 (some centres unmarked) [Compound 148]
0.1 to 1 µM | < 0.1 µM | CCC[C@H](C)c1cc2c(N[C@H]3CC[C@H](N)CC3)c(C(=O)Nc3ccc(F)cc3)cnc2[nH]1 [Compound 149]
< 0.1 µM | < 0.1 µM | CCC[C@@H](C)c1cc2c(N[C@H]3CC[C@H](N)CC3)c(C(=O)Nc3ccc(F)cc3)cnc2[nH]1 [Compound 150]
0.1 to 1 µM | 0.1 to 1 µM | CCOC(C)c1cc2c(N[C@H]3CC[C@H](N)CC3)c(C(=O)Nc3ccc(F)cc3)cnc2[nH]1 (some centres unmarked) [Compound 152]
1 to 10 µM | < 0.1 µM | CCCC(OC)c1cc2c(N[C@H]3CC[C@H](N)CC3)c(C(=O)Nc3ccc(F)cc3)cnc2[nH]1 (some centres unmarked) [Compound 153]
1 to 10 µM | 0.1 to 1 µM | CCCC(O)c1cc2c(N[C@H]3CC[C@H](N)CC3)c(C(=O)Nc3ccc(F)cc3)cnc2[nH]1 (some centres unmarked) [Compound 154]
0.1 to 1 µM | < 0.1 µM | COCC(C)c1cc2c(N[C@H]3CC[C@H](N)CC3)c(C(=O)Nc3ccc(F)cc3)cnc2[nH]1 (some centres unmarked) [Compound 155]
< 0.1 µM | < 0.1 µM | CC[C@H](C)c1cc2c(N[C@H]3CC[C@H](N)CC3)c(C(=O)Nc3ccc(F)cc3)cnc2[nH]1 [Compound 156]
1 to 10 µM | 1 to 10 µM | CCC(C)c1cc2c(N[C@H]3CC[C@H](O)CC3)c(C(=O)NC3CCN(c4ncccn4)CC3)cnc2[nH]1 (some centres unmarked) [Compound 157]
< 0.1 µM | < 0.1 µM | CCC(C)c1cc2c(N[C@H]3CC[C@H](O)CC3)c(C(=O)NC3CCN(C4=NCCCN4)CC3)cnc2[nH]1 (some centres unmarked) [Compound 158]
1 to 10 µM | 1 to 10 µM | CCC(C)c1cc2c(N[C@H]3CC[C@H](O)CC3)c(-c3ccc(S(=O)(=O)N4CCOCC4)cn3)cnc2[nH]1 (some centres unmarked) [Compound 159]
